# Reference: patent US20230398130A1, “METHODS AND COMPOSITIONS FOR DIFFERENTIATING STEM CELLS” (Massachusetts Institute of Technology, priority 2020, published 2023)
# Tests used:
# ISC-enriched organoids [1] = test: Primary screen, 384-well 2.5-D organoid differentiation (ENR+CD, 6 days, Target Selective Inhibitor Library, vs whole-plate median): ATP (CellTiter-Glo 3D, CTG); details: for Dose.FC.CTG (log 2 fold change) / Dose.FC.CTG (log 2 fold change, ATP): vs plate median; for Dose.FC.CTG: ENR+CD 6 days, FC vs plate median; for Z.CTG: standard z score of FC
# ISC-enriched organoids [2] = test: Primary screen, 384-well 2.5-D organoid differentiation (ENR+CD, 6 days): carbachol-induced lysozyme secretion (LYZ.S); assay type: cell-based, murine; details: for Dose.FC.LYZ.S (log 2 fold change) / Dose.FC.LYZ.S: primary screen; for Dose.FC.LYZ.S (log 2 fold change) / Dose.FC.LYZ.S (log 2 fold change, carbachol-induced lysozyme secretion): vs plate median; for Dose.FC.LYZ.S: ENR+CD 6 days, FC vs plate median
# Excerpt: (§1) High-throughput screening.
# ISC-enriched organoids [3] = test: Primary screen, 384-well 2.5-D organoid differentiation (ENR+CD, 6 days): basal lysozyme secretion (LYZ.NS); assay type: cell-based, murine; details: for Dose.FC.LYZ.NS (log 2 fold change) / Dose.FC.LYZ.NS (log 2 fold change, basal lysozyme secretion): vs plate median; for Dose.FC.LYZ.NS: ENR+CD 6 days, FC vs plate median; for Z.LYZ.NS: standard z score of FC
# Excerpt: as §1
structure (smiles),measurement,setting,value
Cc1ccc(C(=O)N(CCCN)[C@@H](c2oc3cc(Cl)ccc3c(=O)c2Cc2ccccc2)C(C)C)cc1 [SB743921],Z.CTG (standard z score),"ISC-enriched organoids [1]; Dose 0.08 uM, primary screen",−1.159
same,Dose.FC.CTG (log 2 fold change),"ISC-enriched organoids [1]; Dose 0.08 uM, primary screen",−0.485
same,Z.CTG (standard z score),"ISC-enriched organoids [1]; Dose 0.40 uM, primary screen",−1.855
same,Dose.FC.CTG (log 2 fold change),"ISC-enriched organoids [1]; Dose 0.40 uM, primary screen",−0.777
same,Z.CTG (standard z score),"ISC-enriched organoids [1]; Dose 2.00 uM, primary screen",−1.158
same,Dose.FC.CTG (log 2 fold change),"ISC-enriched organoids [1]; Dose 2.00 uM, primary screen",−0.485
same,Z.CTG (standard z score),"ISC-enriched organoids [1]; Dose 10.00 uM, primary screen",−1.294
same,Dose.FC.CTG (log 2 fold change),"ISC-enriched organoids [1]; Dose 10.00 uM, primary screen",−0.542
same,Dose.FC.LYZ.S (log 2 fold change),ISC-enriched organoids [2]; Dose 0.08 uM,−0.321
same,Dose.FC.LYZ.S (log 2 fold change),ISC-enriched organoids [2]; Dose 0.40 uM,−0.329
same,Dose.FC.LYZ.S (log 2 fold change),ISC-enriched organoids [2]; Dose 2.00 uM,−0.340
same,Dose.FC.LYZ.S (log 2 fold change),ISC-enriched organoids [2]; Dose 10.00 uM,−0.350
same,Z.LYZ.NS (standard z score),"ISC-enriched organoids [3]; Dose 0.08 uM, primary screen",−2.017
same,Dose.FC.LYZ.NS (log 2 fold change),"ISC-enriched organoids [3]; Dose 0.08 uM, primary screen",−0.232
same,Z.LYZ.NS (standard z score),"ISC-enriched organoids [3]; Dose 0.40 uM, primary screen",−2.148
same,Dose.FC.LYZ.NS (log 2 fold change),"ISC-enriched organoids [3]; Dose 0.40 uM, primary screen",−0.247
same,Z.LYZ.NS (standard z score),"ISC-enriched organoids [3]; Dose 2.00 uM, primary screen",−2.297
same,Dose.FC.LYZ.NS (log 2 fold change),"ISC-enriched organoids [3]; Dose 2.00 uM, primary screen",−0.264
same,Z.LYZ.NS (standard z score),"ISC-enriched organoids [3]; Dose 10.00 uM, primary screen",−2.068
same,Dose.FC.LYZ.NS (log 2 fold change),"ISC-enriched organoids [3]; Dose 10.00 uM, primary screen",−0.238
C[C@@H]1COCCN1c1cc(C2(S(C)(=O)=O)CC2)nc(-c2cccc3[nH]ccc23)n1 [AZ20],Dose.FC.CTG,"ISC-enriched organoids [1]; primary screen, dose 0.08 uM",−0.210 log 2 fold change
same,Z.CTG,"ISC-enriched organoids [1]; primary screen, dose 0.08 uM",−0.500
same,Dose.FC.CTG,"ISC-enriched organoids [1]; primary screen, dose 0.40 uM",−0.218 log 2 fold change
same,Z.CTG,"ISC-enriched organoids [1]; primary screen, dose 0.40 uM",−0.521
same,Dose.FC.CTG,"ISC-enriched organoids [1]; primary screen, dose 2.00 uM",−1.054 log 2 fold change
same,Z.CTG,"ISC-enriched organoids [1]; primary screen, dose 2.00 uM",−2.519
same,Dose.FC.CTG,"ISC-enriched organoids [1]; primary screen, dose 10.00 uM",−0.573 log 2 fold change
same,Z.CTG,"ISC-enriched organoids [1]; primary screen, dose 10.00 uM",−1.368
same,Dose.FC.LYZ.S,ISC-enriched organoids [2]; dose 0.08 uM,−0.038 log 2 fold change
same,Dose.FC.LYZ.S,ISC-enriched organoids [2]; dose 0.40 uM,−0.236 log 2 fold change
same,Dose.FC.LYZ.S,ISC-enriched organoids [2]; dose 2.00 uM,−0.373 log 2 fold change
same,Dose.FC.LYZ.S,ISC-enriched organoids [2]; dose 10.00 uM,−0.329 log 2 fold change
same,Dose.FC.LYZ.NS,"ISC-enriched organoids [3]; primary screen, dose 0.08 uM",0.042 log 2 fold change
same,Z.LYZ.NS,"ISC-enriched organoids [3]; primary screen, dose 0.08 uM",0.365
same,Dose.FC.LYZ.NS,"ISC-enriched organoids [3]; primary screen, dose 0.40 uM",−0.140 log 2 fold change
same,Z.LYZ.NS,"ISC-enriched organoids [3]; primary screen, dose 0.40 uM",−1.222
same,Dose.FC.LYZ.NS,"ISC-enriched organoids [3]; primary screen, dose 2.00 uM",−0.215 log 2 fold change
same,Z.LYZ.NS,"ISC-enriched organoids [3]; primary screen, dose 2.00 uM",−1.868
same,Dose.FC.LYZ.NS,"ISC-enriched organoids [3]; primary screen, dose 10.00 uM",−0.261 log 2 fold change
same,Z.LYZ.NS,"ISC-enriched organoids [3]; primary screen, dose 10.00 uM",−2.271
CCCCNc1ncc(-c2ccc(CN3CCOCC3)cn2)c(NC2CCC(O)CC2)n1 (centres unmarked) [UNC2250],Z.CTG (standard z score),ISC-enriched organoids [1]; dose 0.08 uM,0.633
same,"Dose.FC.CTG (log 2 fold change, ATP)",ISC-enriched organoids [1]; dose 0.08 uM,0.265
same,Z.CTG (standard z score),ISC-enriched organoids [1]; dose 0.40 uM,0.667
same,"Dose.FC.CTG (log 2 fold change, ATP)",ISC-enriched organoids [1]; dose 0.40 uM,0.279
same,Z.CTG (standard z score),ISC-enriched organoids [1]; dose 2.00 uM,0.250
same,"Dose.FC.CTG (log 2 fold change, ATP)",ISC-enriched organoids [1]; dose 2.00 uM,0.105
same,Z.CTG (standard z score),ISC-enriched organoids [1]; dose 10.00 uM,−0.153
same,"Dose.FC.CTG (log 2 fold change, ATP)",ISC-enriched organoids [1]; dose 10.00 uM,−0.064
same,"Dose.FC.LYZ.S (log 2 fold change, carbachol-induced lysozyme secretion)",ISC-enriched organoids [2]; dose 0.08 uM,0.142
same,"Dose.FC.LYZ.S (log 2 fold change, carbachol-induced lysozyme secretion)",ISC-enriched organoids [2]; dose 0.40 uM,0.113
same,"Dose.FC.LYZ.S (log 2 fold change, carbachol-induced lysozyme secretion)",ISC-enriched organoids [2]; dose 2.00 uM,0.134
same,"Dose.FC.LYZ.S (log 2 fold change, carbachol-induced lysozyme secretion)",ISC-enriched organoids [2]; dose 10.00 uM,−0.205
same,Z.LYZ.NS (standard z score),ISC-enriched organoids [3]; dose 0.08 uM,1.005
same,"Dose.FC.LYZ.NS (log 2 fold change, basal lysozyme secretion)",ISC-enriched organoids [3]; dose 0.08 uM,0.115
same,Z.LYZ.NS (standard z score),ISC-enriched organoids [3]; dose 0.40 uM,0.587
same,"Dose.FC.LYZ.NS (log 2 fold change, basal lysozyme secretion)",ISC-enriched organoids [3]; dose 0.40 uM,0.067
same,Z.LYZ.NS (standard z score),ISC-enriched organoids [3]; dose 2.00 uM,0.744
same,"Dose.FC.LYZ.NS (log 2 fold change, basal lysozyme secretion)",ISC-enriched organoids [3]; dose 2.00 uM,0.085
same,Z.LYZ.NS (standard z score),ISC-enriched organoids [3]; dose 10.00 uM,−1.336
same,"Dose.FC.LYZ.NS (log 2 fold change, basal lysozyme secretion)",ISC-enriched organoids [3]; dose 10.00 uM,−0.153
Cc1ccc(-n2nccn2)c(C(=O)N2CCN(c3nc4cc(Cl)ccc4o3)CC[C@H]2C)c1 [Suvorexant (MK-4305)],Z.CTG (standard z score),"ISC-enriched organoids [1]; Dose 0.08 uM, primary screen",0.458
same,Dose.FC.CTG (log 2 fold change),"ISC-enriched organoids [1]; Dose 0.08 uM, primary screen",0.192
same,Z.CTG (standard z score),"ISC-enriched organoids [1]; Dose 0.40 uM, primary screen",0.609
same,Dose.FC.CTG (log 2 fold change),"ISC-enriched organoids [1]; Dose 0.40 uM, primary screen",0.255
same,Z.CTG (standard z score),"ISC-enriched organoids [1]; Dose 2.00 uM, primary screen",0.895
same,Dose.FC.CTG (log 2 fold change),"ISC-enriched organoids [1]; Dose 2.00 uM, primary screen",0.375
same,Z.CTG (standard z score),"ISC-enriched organoids [1]; Dose 10.00 uM, primary screen",0.597
same,Dose.FC.CTG (log 2 fold change),"ISC-enriched organoids [1]; Dose 10.00 uM, primary screen",0.250
same,Dose.FC.LYZ.S (log 2 fold change),ISC-enriched organoids [2]; Dose 0.08 uM,0.186
same,Dose.FC.LYZ.S (log 2 fold change),ISC-enriched organoids [2]; Dose 0.40 uM,0.142
same,Dose.FC.LYZ.S (log 2 fold change),ISC-enriched organoids [2]; Dose 2.00 uM,0.101
same,Dose.FC.LYZ.S (log 2 fold change),ISC-enriched organoids [2]; Dose 10.00 uM,0.131
same,Z.LYZ.NS (standard z score),"ISC-enriched organoids [3]; Dose 0.08 uM, primary screen",1.775
same,Dose.FC.LYZ.NS (log 2 fold change),"ISC-enriched organoids [3]; Dose 0.08 uM, primary screen",0.204
same,Z.LYZ.NS (standard z score),"ISC-enriched organoids [3]; Dose 0.40 uM, primary screen",1.073
same,Dose.FC.LYZ.NS (log 2 fold change),"ISC-enriched organoids [3]; Dose 0.40 uM, primary screen",0.123
same,Z.LYZ.NS (standard z score),"ISC-enriched organoids [3]; Dose 2.00 uM, primary screen",1.073
same,Dose.FC.LYZ.NS (log 2 fold change),"ISC-enriched organoids [3]; Dose 2.00 uM, primary screen",0.123
same,Z.LYZ.NS (standard z score),"ISC-enriched organoids [3]; Dose 10.00 uM, primary screen",0.670
same,Dose.FC.LYZ.NS (log 2 fold change),"ISC-enriched organoids [3]; Dose 10.00 uM, primary screen",0.077
